From article PMC12525849, “In Silico and RP HPLC Studies of Biologically Active 1,3,4-Thiadiazol-2-yl)-benzene-1,3-diols” (Molecules, 2025)
Where two headings read alike, the source gives them in different places.

How the values were obtained:
[1] = RP HPLC on octadecyl (C-18/RP-18) column, buffer-MeOH pH 7.4, log kw by extrapolation; type: physicochemical; conditions: C18 stationary phase; for log kw C-18: MeOH-buffer pH 7.4, extrapolated intercept; for S: slope of log k vs MeOH content, pH 7.4
From the text: (§1) The retention factors of considered compounds were investigated using five different bonded stationary phases: octadecyl (RP-18), octyl (RP-8), cholesterol (Chol), phosphatidylcholine (IAM), and biphenyl (BPh). Water buffer–methanol mobile phases with pH 7.4 were used. The content of MeOH was varying and it depended on the type of compound and the stationary phase.
For the tested systems, linear relationships were obtained between the retention coefficient log k and the content of MeOH (%) in the mobile phase expressed by the Snyder–Soczewiński equation:log k = log kw + S (% organic modifier)(2) where: log kw—the intercept; S—the slope of regression curve.
Log kw values were estimated by the extrapolation method. Log kw and S parameters are presented in Figure 3, Table 2, and Tables S1–S5 in the Supplementary Materials. These parameters obtained by C-18, C-8, and IAM chromatography are commonly used as lipophilicity descriptors.
(§2) HPLC measurements for C-18, C-8, IAM, Chol, and BPh phases were carried out using a liquid chromatograph Knauer (Knauer, Berlin, Germany) with a single pump working in isocratic mode, a 20 µL simple injection valve, and a UV–visible detector (Knauer, Berlin, Germany) working at 280 nm at room temperature. The retention time of an unretained solute (t0) was determined by the injection of a small amount of citric acid dissolved in water. The mobile phase flow rate was 1 mL/min (0.35 mL/min for Chol). HPLC columns: C18—Eurosil Bioselect 300 × 4 mm, 5 μm; C8—Waters. Symetry 150 × 4.6 mm, 5 μm, 100 Ǻ; IAM—Rexchrom IAM.PC.DD2 100 × 4.6 mm, 12 μm; Chol—Cogent 4 UDC Cholesterol 150 × 2.1 mm, 4 μm; BPh—Kinetex Biphenyl 150 × 4.6 mm, 5 μm were applied.
(§3) Mobile phase for RP-18, RP-8, Chol, and BPh chromatography was composed using 20 mM acetic buffer/MeOH with respective MeOH concentration ranges (volume fractions: C18—from 0.5 to 0.99; C8—from 0.5 to 0.9; IAM—from 0.15 to 0.5; Chol: from 0.45 to 0.9; BPh: from 0.4 to 0.99) to obtain pH = 7.4. In the case of IAM chromatography, phosphate buffer was used. At least five consecutive retention times for five concentrations per every investigated compound for every chromatographic system were measured. Log k parameter was calculated as log k = log (tr−t0/t0), where tr = the retention time of the analyte; t0 = the retention time of an unretained compound.

[2] = Log D(7.4) determination from RP-18 measurements using a standard curve; type: physicochemical; conditions: C18 (RP-18) HPLC column with MeOH-water mobile phase; calculated from standard curve (Equation 3) and log kw C18, pH 7.4
From the text: C-18 chromatography was used to determine the distribution coefficient log D(7.4) of the tested compounds using a standard curve. It was constructed for the reference compounds with known experimental log D(7.4) values and studied chromatographically under the same conditions as the analyzed compounds [44] (Table 4). The obtained log kw values were plotted against the log D(7.4) based on BioLoom Database values taken from Andres et al. (Table S6 in the Supplementary Materials). […] In the case of analogues 7 and 14, these differences are the largest and they constitute about 17% and 13%, respectively (Table 4). This means that the obtained log kw values from the C18/MeOH-water (pH = 7.4) chromatographic system reflect the extraction values of log D(7.4) quite well. […] The analytical standards were purchased from Sigma Aldrich […], Darmstadt, Germany). The obtained log kw values from HPLC C-18 were plotted against the log D(7.4) based on BioLoom Database values taken from Andres et al. (Table S6 in the Supplementary Materials).

[3] = Comparison of retention (log kw) on RP-18, RP-8, Chol, IAM and BPh stationary phases; type: physicochemical; conditions: for retention, in words: investigated stationary phases
From the text: as §1
The lowest log kw values can be observed for RP-18 and IAM stationary phases. For most compounds, log kw IAM values have similar values or are lower than those obtained for C18 stationary phase. […] On the octadecyl column the main contribution to retention comes from almost entirely hydrophobic interactions, when in the case of IAM phase there are additional mechanisms involved in interactions as ion pairing and hydrogen bonding. They can be either attractive or repulsive in nature. This depends on the structure of compound and pH.
as §2, §3

[4] = cited from earlier work

Row | log kw C-18 [1] | S [1] | chromatographic logD [2] | retention, in words [3] | retention / determined lipophilicity, in words ([3]; all investigated stationary phases except IAM) | SMILES | log D(7.4) Bio Loom ([4]; standards used for calibration curve, BioLoom Database values taken from Andres et al. ref 44) | log D(7.4) Bio Loom ([4]; pH 7.4)
1 | 2.537 | −3.494 | 2.51 | – | – | Oc1ccc(-c2nnc(-c3ccccc3)s2)c(O)c1 [Compound 1] | – | –
2 | 3 | −3.87 | 3.13 | – | – | Cc1cccc(-c2nnc(-c3ccc(O)cc3O)s2)c1 [Compound 2] | – | –
3 | 3.002 | −3.885 | 3.13 | – | – | Oc1ccc(-c2nnc(-c3ccccc3F)s2)c(O)c1 [Compound 3] | – | –
4 | 2.67 | −3.651 | 2.69 | – | – | Oc1ccc(-c2nnc(-c3ccccc3Cl)s2)c(O)c1 [Compound 4] | – | –
5 | 3.678 | −4.438 | 4.05 | – | – | Oc1ccc(-c2nnc(-c3ccc(Cl)cc3Cl)s2)c(O)c1 [Compound 5] | – | –
6 | 3.69 | −4.696 | 4.06 | strongest retained | – | Oc1ccc(-c2nnc(-c3ccc(C(F)(F)F)cc3)s2)c(O)c1 [Compound 6] | – | –
7 | 1.907 | −3.171 | 1.66 | – | weakest retention | Oc1ccc(-c2nnc(-c3ccc(O)c(O)c3)s2)c(O)c1 [Compound 7] | – | –
8 | 2.545 | −3.785 | 2.52 | relatively low retention factor values | – | COc1cc(-c2nnc(-c3ccc(O)cc3O)s2)ccc1O [Compound 8] | – | –
9 | 2.512 | −3.432 | 2.47 | relatively low retention factor values | – | O=[N+]([O-])c1cccc(-c2nnc(-c3ccc(O)cc3O)s2)c1 [Compound 9] | – | –
10 | 3.734 | −4.65 | 4.12 | strongest retained | – | Oc1cc(O)c(-c2nnc(-c3ccc(OC(F)(F)F)cc3)s2)cc1Cl [Compound 10] | – | –
11 | 2.477 | −3.66 | 2.42 | relatively low retention factor values | – | Oc1ccc(-c2nnc(Nc3ccccc3)s2)c(O)c1 [Compound 11] | – | –
12 | 2.986 | −4.168 | 3.11 | – | – | Cc1ccc(Nc2nnc(-c3ccc(O)cc3O)s2)cc1 [Compound 12] | – | –
13 | 3.005 | −4.173 | 3.14 | – | – | Oc1cc(O)c(-c2nnc(Nc3ccc(F)cc3)s2)cc1Cl [Compound 13] | – | –
14 | 4.296 | −5.335 | 4.88 | strongest retained | – | CCc1cc(-c2nnc(Nc3ccc(Cl)cc3)s2)c(O)cc1O [Compound 14] | – | –
15 | 3.238 | −4.185 | 3.45 | – | – | CCOC(=O)c1ccc(Nc2nnc(-c3ccc(O)cc3O)s2)cc1 [Compound 15] | – | –
16 | 3.059 | −3.931 | 3.21 | – | – | Oc1ccc(-c2nnc(Nc3cccc4ccccc34)s2)c(O)c1 [Compound 16] | – | –
17 | 2.78 | – | 2.83 | – | – | CCCCNc1nnc(-c2cc(Cl)c(O)cc2O)s1 [Compound 17] | – | –
18 | 2.879 | −3.883 | 2.97 | strongest retained | – | Oc1ccc(-c2nnc(COc3ccc(OC(F)(F)F)cc3)s2)c(O)c1 [Compound 18] | – | –
19 | 3.012 | – | – | – | – | O=C(CCCN1CCC(O)(c2ccc(Cl)cc2)CC1)c1ccc(F)cc1 [haloperidol, reference compound] | 2.92 | –
20 | 2.210 | – | – | – | – | C[C@]12CCC(=O)C=C1CC[C@@H]1[C@@H]2[C@@H](O)C[C@@]2(C)[C@H]1CC[C@]2(O)C(=O)CO [hydrocortisone, reference compound] | – | –
21 | 3.370 | – | – | – | – | CC(=O)N1CCN(c2ccc(OCC3COC(Cn4ccnc4)(c4ccc(Cl)cc4Cl)O3)cc2)CC1 (stereo not shown) [ketoconazole, reference compound] | – | –

Row | SMILES | log kw C-18 [1] | S [1] | chromatographic logD [2] | retention, in words [3] | retention / determined lipophilicity, in words ([3]; all investigated stationary phases except IAM) | log D(7.4) Bio Loom ([4]; standards used for calibration curve, BioLoom Database values taken from Andres et al. ref 44) | log D(7.4) Bio Loom ([4]; pH 7.4)
22 | Cn1c(=O)c2c(ncn2C)n(C)c1=O [caffeine, reference compound] | 0.802 | – | – | – | – | – | –
23 | CCN(CC)CC(=O)Nc1c(C)cccc1C [lidocaine, reference compound] | 2.079 | – | – | – | – | – | –
24 | c1ccc2ccccc2c1 [naphthalene, reference compound] | 2.615 | – | – | – | – | – | 3.3
25 | Cn1c(=O)c2[nH]cnc2n(C)c1=O [theophylline, reference compound] | 0.380 | – | – | – | – | – | –
